# Measurements reported in US9738634B2, “Heterocyclic amide compound and herbicide” (SYNGENTA PARTICIPATIONS AG, priority 2013, dated 2017).
# Legend:
# Type in all cases: in vivo
# barnyard grass [1] = assay: Test Example 1: weedkilling efficacy, preemergent weed treatment in the submerged state; A: barnyard grass; details: treatment dosage 252 g/ha
# Method in brief: (§1)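 Pots of alluvial soil flooded 4 cm deep, sown with barnyard grass, bulrush and oval-leafed pondweed and transplanted with 2.5-leaf rice. Emulsified compound applied to the water surface on sowing day at stated g/ha; greenhouse 25–30 °C, effects assessed 3 weeks after treatment.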
# bulrush [2] = assay: Test Example 1: weedkilling efficacy, preemergent weed treatment in the submerged state; B: bulrush; details: treatment dosage 252 g/ha
# Method in brief: as §1
# oval-leafed pondweed [3] = assay: Test Example 1: weedkilling efficacy, preemergent weed treatment in the submerged state; C: oval-leafed pondweed; details: treatment dosage 252 g/ha
# Method in brief: as §1
# transplanted rice = assay: Test Example 1: preemergent weed treatment in the submerged state, effect on crop; a: transplanted rice; details: treatment dosage 252 g/ha
# Method in brief: as §1
# barnyard grass [4] = assay: Test Example 2: weedkilling efficacy, growth period weed treatment in the submerged state; A: barnyard grass; details: treatment dosage 252 g/ha
# Method in brief: (§2)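 Barnyard grass, bulrush and oval-leafed pondweed sown in alluvial soil under 4 cm flooding, greenhouse 25 to 30° C. At 1-2 leaf stage, water-diluted emulsion applied to the water surface at stated g/ha dosages; effects scored 3 weeks later.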
# bulrush [5] = assay: Test Example 2: weedkilling efficacy, growth period weed treatment in the submerged state; B: bulrush; details: treatment dosage 252 g/ha
# Method in brief: as §2
# oval-leafed pondweed [6] = assay: Test Example 2: weedkilling efficacy, growth period weed treatment in the submerged state; C: oval-leafed pondweed; details: treatment dosage 252 g/ha
# Method in brief: as §2
# crabgrass [7] = assay: Test Example 3: weedkilling efficacy through soil treatment; D: crabgrass; details: treatment dosage 315 g/ha
# Method in brief: (§3)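 Crop and weed responses were judged three weeks after a uniform surface spray of the water-diluted emulsion at the given g/ha rate. Seeds sat beneath about 1.5 cm of sterilized diluvial soil, and boxes stood in a greenhouse at 25 to 30° C.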
# green foxtail [8] = assay: Test Example 3: weedkilling efficacy through soil treatment; E: green foxtail; details: treatment dosage 315 g/ha
# Method in brief: as §3
# wild oat [9] = assay: Test Example 3: weedkilling efficacy through soil treatment; G: wild oat; details: treatment dosage 315 g/ha
# Method in brief: as §3
# black-grass [10] = assay: Test Example 3: weedkilling efficacy through soil treatment; H: black-grass; details: treatment dosage 315 g/ha
# Method in brief: as §3
# Italian ryegrass [11] = assay: Test Example 3: weedkilling efficacy through soil treatment; I: Italian ryegrass; details: treatment dosage 315 g/ha
# Method in brief: as §3
# Indian mallow [12] = assay: Test Example 3: weedkilling efficacy through soil treatment; K: Indian mallow; details: treatment dosage 315 g/ha
# Method in brief: as §3
# redroot pigweed [13] = assay: Test Example 3: weedkilling efficacy through soil treatment; L: redroot pigweed; details: treatment dosage 315 g/ha
# Method in brief: as §3
# fig-leafed goosefoot [14] = assay: Test Example 3: weedkilling efficacy through soil treatment; M: fig-leafed goosefoot; details: treatment dosage 315 g/ha
# Method in brief: as §3
# chickweed [15] = assay: Test Example 3: weedkilling efficacy through soil treatment; N: chickweed; details: treatment dosage 315 g/ha
# Method in brief: as §3
# birds-eye speedwell = assay: Test Example 3: weedkilling efficacy through soil treatment; p: birds-eye speedwell; details: treatment dosage 315 g/ha
# Method in brief: as §3
# directly sown rice [16] = assay: Test Example 3: soil treatment, effect on crop; b: directly sown rice; details: treatment dosage 315 g/ha
# Method in brief: as §3
# corn [17] = assay: Test Example 3: soil treatment, effect on crop; c: corn; details: treatment dosage 315 g/ha
# Method in brief: as §3
# soybean [18] = assay: Test Example 3: soil treatment, effect on crop; d: soybean; details: treatment dosage 315 g/ha
# Method in brief: as §3
# wheat [19] = assay: Test Example 3: soil treatment, effect on crop; e: wheat; details: treatment dosage 315 g/ha
# Method in brief: as §3
# beet [20] = assay: Test Example 3: soil treatment, effect on crop; f: beet; details: treatment dosage 315 g/ha
# Method in brief: as §3
# crabgrass [21] = assay: Test Example 4: weedkilling efficacy by foliar treatment; D: crabgrass; details: treatment dosage 315 g/ha
# Method in brief: (§4)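 Seeds are spot-sown into sterilized diluvial soil and covered with about 1.5 cm of soil. After 14 days' greenhouse growth at 25 to 30° C, plants are sprayed on stems and leaves with diluted emulsion at the stated g/ha rate, then scored at 3 weeks.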
# green foxtail [22] = assay: Test Example 4: weedkilling efficacy by foliar treatment; E: green foxtail; details: treatment dosage 315 g/ha
# Method in brief: as §4
# wild oat [23] = assay: Test Example 4: weedkilling efficacy by foliar treatment; G: wild oat; details: treatment dosage 315 g/ha
# Experimental: Testing of Weedkilling Efficacy by Foliar Treatment
# Sterilized diluvial soil was introduced into 21 cm long, 13 cm wide, 7 cm deep plastic boxes, and seeds of crabgrass, green foxtail, barnyard grass, wild oat, black-grass, Italian ryegrass, common wind-grass, Indian mallow, redroot pigweed, fig-leafed goosefoot, chickweed, catchweed, birds-eye speedwell, corn, soybean, rice, wheat, beet and rapeseed were each spot-sown, and covered with about 1.5 cm of soil, then the plants were grown in a greenhouse at 25 to 30° C.
# After they had grown for 14 days, emulsions of compounds of the present invention prepared according to compounding example 2 were diluted with water to give the specified dosages, and applied uniformly onto the stem and leaf parts with a small sprayer. 3 weeks after the pesticide treatment the effect on each type of plant was investigated on the basis of the assessment criteria of test example 1.
# A: barnyard grass, B: bulrush, C: oval-leafed pondweed, D: crabgrass, E: green foxtail, F: barnyard grass, G: wild oat, H: black-grass, I: Italian ryegrass, J: common wind-grass, K: Indian mallow, L: redroot pigweed, M: fig-leafed goosefoot, N: chickweed, O: catchweed, p: birds-eye speedwell, a: transplanted rice, b: directly sown rice, c: corn, d: soybean, e: wheat, f: beet, g: rapeseed
# Further, pesticide dosage (g/ha) indicates the concentration regulated such that treatment was with only the stated number of grams (g), when calculated per hectare (ha).
# black-grass [24] = assay: Test Example 4: weedkilling efficacy by foliar treatment; H: black-grass; details: treatment dosage 315 g/ha
# Method in brief: as §4
# Italian ryegrass [25] = assay: Test Example 4: weedkilling efficacy by foliar treatment; I: Italian ryegrass; details: treatment dosage 315 g/ha
# Method in brief: as §4
# Indian mallow [26] = assay: Test Example 4: weedkilling efficacy by foliar treatment; K: Indian mallow; details: treatment dosage 315 g/ha
# Method in brief: as §4
# redroot pigweed [27] = assay: Test Example 4: weedkilling efficacy by foliar treatment; L: redroot pigweed; details: treatment dosage 315 g/ha
# Method in brief: as §4
# fig-leafed goosefoot [28] = assay: Test Example 4: weedkilling efficacy by foliar treatment; M: fig-leafed goosefoot; details: treatment dosage 315 g/ha
# Method in brief: as §4
# chickweed [29] = assay: Test Example 4: weedkilling efficacy by foliar treatment; N: chickweed; details: treatment dosage 315 g/ha
# Method in brief: as §4
# catchweed = assay: Test Example 4: weedkilling efficacy by foliar treatment; O: catchweed; details: treatment dosage 315 g/ha
# Method in brief: as §4
# directly sown rice [30] = assay: Test Example 4: foliar treatment, effect on crop; b: directly sown rice; details: treatment dosage 315 g/ha
# Method in brief: as §4
# corn [31] = assay: Test Example 4: foliar treatment, effect on crop; c: corn; details: treatment dosage 315 g/ha
# Method in brief: as §4
# soybean [32] = assay: Test Example 4: foliar treatment, effect on crop; d: soybean; details: treatment dosage 315 g/ha
# Method in brief: as §4
# wheat [33] = assay: Test Example 4: foliar treatment, effect on crop; e: wheat; details: treatment dosage 315 g/ha
# Method in brief: as §4
# beet [34] = assay: Test Example 4: foliar treatment, effect on crop; f: beet; details: treatment dosage 315 g/ha
# Method in brief: as §4
smiles,measurement,setting,value
CC1=C(c2ccccc2)C(=O)N(C(C)(C)C(=O)Nc2cccc(F)n2)CO1 [B-2-27],A (barnyard grass) weedkilling efficacy grade,barnyard grass [1],"5 (weed kill ratio 90% or more, (practically complete withering))"
same,B (bulrush) weedkilling efficacy grade,bulrush [2],"5 (weed kill ratio 90% or more, (practically complete withering))"
same,C (oval-leafed pondweed) weedkilling efficacy grade,oval-leafed pondweed [3],"5 (weed kill ratio 90% or more, (practically complete withering))"
same,a (transplanted rice) effect on crop grade,transplanted rice,0 (weed kill ratio 5% or less (practically no effect))
same,A (barnyard grass) weedkilling efficacy grade,barnyard grass [4],"4 (weed kill ratio 70% or more, less than 90%)"
same,B (bulrush) weedkilling efficacy grade,bulrush [5],"5 (weed kill ratio 90% or more, (practically complete withering))"
same,C (oval-leafed pondweed) weedkilling efficacy grade,oval-leafed pondweed [6],"5 (weed kill ratio 90% or more, (practically complete withering))"
same,D (crabgrass) weedkilling efficacy grade,crabgrass [7],"5 (weed kill ratio 90% or more, (practically complete withering))"
same,E (green foxtail) weedkilling efficacy grade,green foxtail [8],"5 (weed kill ratio 90% or more, (practically complete withering))"
same,G (wild oat) weedkilling efficacy grade,wild oat [9],"5 (weed kill ratio 90% or more, (practically complete withering))"
same,H (black-grass) weedkilling efficacy grade,black-grass [10],"5 (weed kill ratio 90% or more, (practically complete withering))"
same,I (Italian ryegrass) weedkilling efficacy grade,Italian ryegrass [11],"5 (weed kill ratio 90% or more, (practically complete withering))"
same,K (Indian mallow) weedkilling efficacy grade,Indian mallow [12],"5 (weed kill ratio 90% or more, (practically complete withering))"
same,L (redroot pigweed) weedkilling efficacy grade,redroot pigweed [13],"5 (weed kill ratio 90% or more, (practically complete withering))"
same,M (fig-leafed goosefoot) weedkilling efficacy grade,fig-leafed goosefoot [14],"5 (weed kill ratio 90% or more, (practically complete withering))"
same,N (chickweed) weedkilling efficacy grade,chickweed [15],"5 (weed kill ratio 90% or more, (practically complete withering))"
same,P (birds-eye speedwell) weedkilling efficacy grade,birds-eye speedwell,"5 (weed kill ratio 90% or more, (practically complete withering))"
same,b (directly sown rice) effect on crop grade,directly sown rice [16],"5 (weed kill ratio 90% or more, (practically complete withering))"
same,c (corn) effect on crop grade,corn [17],"4 (weed kill ratio 70% or more, less than 90%)"
same,d (soybean) effect on crop grade,soybean [18],"5 (weed kill ratio 90% or more, (practically complete withering))"
same,e (wheat) effect on crop grade,wheat [19],"5 (weed kill ratio 90% or more, (practically complete withering))"
same,f (beet) effect on crop grade,beet [20],"4 (weed kill ratio 70% or more, less than 90%)"
same,D (crabgrass) weedkilling efficacy grade,crabgrass [21],"5 (weed kill ratio 90% or more, (practically complete withering))"
same,E (green foxtail) weedkilling efficacy grade,green foxtail [22],"5 (weed kill ratio 90% or more, (practically complete withering))"
same,G (wild oat) weedkilling efficacy grade,wild oat [23],"5 (weed kill ratio 90% or more, (practically complete withering))"
same,H (black-grass) weedkilling efficacy grade,black-grass [24],"5 (weed kill ratio 90% or more, (practically complete withering))"
same,I (Italian ryegrass) weedkilling efficacy grade,Italian ryegrass [25],"5 (weed kill ratio 90% or more, (practically complete withering))"
same,K (Indian mallow) weedkilling efficacy grade,Indian mallow [26],"4 (weed kill ratio 70% or more, less than 90%)"
same,L (redroot pigweed) weedkilling efficacy grade,redroot pigweed [27],"4 (weed kill ratio 70% or more, less than 90%)"
same,M (fig-leafed goosefoot) weedkilling efficacy grade,fig-leafed goosefoot [28],"3 (weed kill ratio 40% or more, less than 70%)"
same,N (chickweed) weedkilling efficacy grade,chickweed [29],"4 (weed kill ratio 70% or more, less than 90%)"
same,O (catchweed) weedkilling efficacy grade,catchweed,"4 (weed kill ratio 70% or more, less than 90%)"
same,b (directly sown rice) effect on crop grade,directly sown rice [30],"5 (weed kill ratio 90% or more, (practically complete withering))"
same,c (corn) effect on crop grade,corn [31],"4 (weed kill ratio 70% or more, less than 90%)"
same,d (soybean) effect on crop grade,soybean [32],"4 (weed kill ratio 70% or more, less than 90%)"
same,e (wheat) effect on crop grade,wheat [33],"4 (weed kill ratio 70% or more, less than 90%)"
same,f (beet) effect on crop grade,beet [34],"4 (weed kill ratio 70% or more, less than 90%)"
